The values below come from patent US20060063820A1, “2,6-dihalo-4-(3,3-dichloro-allyloxy)-benzylalcohole derivatives having insecticidal and acaricidal properties” (priority 2002, published 2006).

Read-outs that look alike come from different tables or passages of the source.

One data set relates to Spodoptera littoralis. Description: Action against Spodoptera littoralis (sprayed soybean plants). It is filed as in vivo. Particulars: 72 h, read-out: percentage reduction in population and percentage reduction in feeding damage (% activity). The procedure: Young soybean plants are sprayed with an aqueous emulsion spray mixture comprising 400 ppm of test compound and, after the spray-coating has dried, the plants are populated with 10 caterpillars of Spodoptera littoralis in the first stage and then placed in a plastics container. 3 days later, the percentage reduction in population and the percentage reduction in feeding damage (% activity) are determined by comparing the number of dead caterpillars and the feeding damage on the treated plants with that on untreated plants.

Another data set has as its system Heliothis virescens. Description: Action against Heliothis virescens caterpillars (sprayed soybean plants). Particulars: 144 h, read-out: percentage reduction in population and percentage reduction in feeding damage (% activity). Type of data set: in vivo. As to the method: Young soybean plants are sprayed with an aqueous emulsion spray mixture comprising 400 ppm of active ingredient. After the spray-coating has dried, the soybean plants are populated with 10 caterpillars of Heliothis virescens in the first stage and placed in a plastics container. Evaluation is made 6 days later. The percentage reduction in population and the percentage reduction in feeding damage (% activity) are determined by comparing the number of dead caterpillars and the feeding damage on the treated plants with that on the untreated plants.

The next data set concerns Plutella xylostella. Description: Action against Plutella xylostella caterpillars (sprayed cabbage plants). It is filed as in vivo. Particulars: 72 h, read-out: percentage reduction in population and percentage reduction in feeding damage (% activity). The procedure: Young cabbage plants are sprayed with an aqueous emulsion spray mixture comprising 400 ppm of active ingredient. After the spray-coating has dried, the cabbage plants are populated with 10 caterpillars of Plutella xylostella in the third stage and placed in a plastics container. Evaluation is made 3 days later. The percentage reduction in population and the percentage reduction in feeding damage (% activity) are determined by comparing the number of dead caterpillars and the feeding damage on the treated plants with that on the untreated plants.

[1] abbreviates: 400 ppm spray mixture, soybean plants, caterpillars in the first stage, 3 days later.
Where [2] appears, read: 400 ppm spray mixture, soybean plants, caterpillars in the first stage, evaluation 6 days later.
Setting [3] is: 400 ppm spray mixture, cabbage plants, caterpillars in the third stage, evaluation 3 days later.

Take `ClC(Cl)=CCOc1cc(Cl)c(COCC2COC(c3ccc(Br)s3)O2)c(Cl)c1` (stereo not shown) [Compound 2.8]: the inhibition at 400 ppm in the data set with Spodoptera littoralis (setting [1]), with Heliothis virescens (setting [2]) and with Plutella xylostella (setting [3]) was > 80% in each case.

On to `FC1(F)Oc2cccc(C3OCC(COCc4c(Cl)cc(OCC=C(Cl)Cl)cc4Cl)O3)c2O1` (stereo not shown) [Compound 2.10], for which the inhibition at 400 ppm in the data set with Spodoptera littoralis (setting [1]), with Heliothis virescens (setting [2]) and in the data set with Plutella xylostella (setting [3]) was > 80% in each case.

As to `CC(C)Oc1ccc(C2(C(=O)OCc3c(Cl)cc(OCC=C(Cl)Cl)cc3Cl)CC2)cc1` [Compound 3.12], the inhibition at 400 ppm in the data set with Spodoptera littoralis (setting [1]), with Heliothis virescens (setting [2]) and in the data set on Plutella xylostella (setting [3]) was > 80% throughout.

Take `O=C(OCc1c(Cl)cc(OCC=C(Cl)Cl)cc1Cl)C1(c2ccc(OC(F)(F)F)cc2)CC1` [Compound 3.15]: the inhibition at 400 ppm in the data set with Spodoptera littoralis (setting [1]), with Heliothis virescens (setting [2]) and with Plutella xylostella (setting [3]) was > 80% each time.

Turning to `O=[N+]([O-])c1cc(C2OCC(COCc3c(Cl)cc(OCC=C(Cl)Cl)cc3Cl)O2)cs1` (stereo not shown) [Compound 2.12], the inhibition at 400 ppm in the data set with Spodoptera littoralis (setting [1]), with Heliothis virescens (setting [2]) and in the data set on Plutella xylostella (setting [3]) was > 80% each time.

For `O=[N+]([O-])c1cccc(COCc2c(Cl)cc(OCC=C(Cl)Cl)cc2Cl)c1` [Compound 5.9, 1,3-dichloro-5-(3,3-dichloroallyloxy)-2-(3-nitrobenzyloxymethyl)-benzene], the inhibition at 400 ppm with Heliothis virescens and with Plutella xylostella was > 80% in each case.

`FC(F)(F)c1cc(OCc2c(Cl)cc(OCC=C(Cl)Cl)cc2Cl)ccn1` [Compound 1.14]: in the data set on Plutella xylostella (setting [3]), the inhibition at 400 ppm was > 80%.

For the compound `Cc1nsc(Oc2ccc(OCCOCc3c(Cl)cc(OCC=C(Cl)Cl)cc3Cl)cc2)n1` [Compound 4.10], the melting point lay in the range of 95 to 97 °C.

For the compound `Cn1nc(C2OCC(COCc3c(Cl)cc(OCC=C(Cl)Cl)cc3Cl)O2)c(C(F)(F)F)c1Cl` (stereo not shown) [Compound 2.15], the inhibition at 400 ppm in the data set on Spodoptera littoralis (setting [1]), in the data set with Heliothis virescens (setting [2]) and in the data set with Plutella xylostella (setting [3]) was > 80% in each case.

On to `FC(F)(F)c1ccc(COCc2c(Cl)cc(OCC=C(Cl)Cl)cc2Cl)cc1` [Compound 5.6], for which the inhibition at 400 ppm in the data set with Spodoptera littoralis (setting [1]), in the data set with Heliothis virescens (setting [2]) and with Plutella xylostella (setting [3]) was > 80% throughout.

Consider `C#COc1cccc(OCCOCc2c(Cl)cc(OCC=C(Cl)Cl)cc2Cl)c1` [Compound 4.4, 1,3-dichloro-5-(3,3-dichloroallyloxy)-2-[2-(3-ethynyloxy-phenoxy)-ethoxymethyl]-benzene], for which the inhibition at 400 ppm in the data set with Heliothis virescens (setting [2]) and with Plutella xylostella (setting [3]) was > 80% each time.

For the compound `N#Cc1c(Br)sc(C2OCC(COCc3c(Cl)cc(OCC=C(Cl)Cl)cc3Cl)O2)c1Cl` (stereo not shown) [Compound 2.17], the inhibition at 400 ppm in the data set with Heliothis virescens (setting [2]) and in the data set with Plutella xylostella (setting [3]) was > 80% in each case.

For `COC(=O)COCc1c(Cl)cc(OCC=C(Cl)Cl)cc1Cl` [Compound 7.5], the inhibition at 400 ppm in the data set on Spodoptera littoralis (setting [1]), in the data set on Heliothis virescens (setting [2]) and with Plutella xylostella (setting [3]) was > 80% each time.

With `FC(F)(F)c1ccc(OCc2c(Cl)cc(OCC=C(Cl)Cl)cc2Cl)cc1` [Compound 1.2], the inhibition at 400 ppm with Spodoptera littoralis (setting [1]) and with Heliothis virescens (setting [2]) was > 80% in each case.

The compound `O=C(OCc1c(Cl)cc(OCC=C(Cl)Cl)cc1Cl)C1(c2ccc(F)cc2F)CC1` [Compound 3.16] showed a melting point of 63 to 64 °C.

In the case of `Cc1nsc(Oc2cccc(OCc3c(Cl)cc(OCC=C(Cl)Cl)cc3Cl)c2)n1` [Compound 1.21], the inhibition at 400 ppm in the data set with Plutella xylostella (setting [3]) is > 80%.

`C#CCOc1cccc(OCc2c(Cl)cc(OCC=C(Cl)Cl)cc2Cl)c1` [Compound 1.3]: the inhibition at 400 ppm with Spodoptera littoralis, in the data set with Heliothis virescens and with Plutella xylostella was > 80% in each case.

With `O=C(OCc1c(Cl)cc(OCC=C(Cl)Cl)cc1Cl)C1(c2ccc([N+](=O)[O-])cc2)CC1` [Compound 3.17], the melting point was 107 to 108 °C.

Regarding `FC(F)(F)Oc1ccc(C2OCC(COCc3c(Cl)cc(OCC=C(Cl)Cl)cc3Cl)O2)cc1` (single isomer, unassigned) [Compound 2.3, 4-[2,6-dichloro-4-(3,3-dichloroallyloxy)-benzyloxymethyl]-2-(4-trifluoromethoxyphenyl)-[1,3]dioxolane], the inhibition at 400 ppm in the data set on Spodoptera littoralis (setting [1]), with Heliothis virescens (setting [2]) and in the data set on Plutella xylostella (setting [3]) was > 80% each time.

`O=C(NCc1c(Cl)cc(OCC=C(Cl)Cl)cc1Cl)Nc1ccccc1C(F)(F)F` [Compound 6.23, 1-[2,6-dichloro-4-(3,3-dichloroallyloxy)-benzyl]-3-(2-trifluoromethylphenyl)-urea] returned a melting point of 215 to 216 °C. Also, the inhibition at 400 ppm in the data set with Spodoptera littoralis (setting [1]) was > 80%. Also, in the data set on Heliothis virescens (setting [2]), the inhibition at 400 ppm is > 80%. In the data set on Plutella xylostella (setting [3]), the inhibition at 400 ppm is > 80%.

In the case of `ClC(Cl)=CCOc1cc(Cl)c(COCc2cnc(Cl)c(Cl)c2)c(Cl)c1` [Compound 5.14], the inhibition at 400 ppm with Spodoptera littoralis, in the data set on Heliothis virescens and in the data set on Plutella xylostella was > 80% each time.

Take `ClC(Cl)=CCOc1cc(Cl)c(COc2ccnc3cc(Cl)ccc23)c(Cl)c1` [Compound 1.12]: the inhibition at 400 ppm in the data set on Spodoptera littoralis, in the data set with Heliothis virescens and in the data set with Plutella xylostella was > 80% each time.

As to `O=C(OCCOCc1c(Cl)cc(OCC=C(Cl)Cl)cc1Cl)c1ccc(C(F)(F)F)cc1` [Compound 8.11], the inhibition at 400 ppm in the data set on Spodoptera littoralis (setting [1]) was > 80%.

`FC(F)(F)c1ccc(OCCOCc2c(Cl)cc(OCC=C(Cl)Cl)cc2Cl)nc1` [Compound 4.11]: the inhibition at 400 ppm with Spodoptera littoralis (setting [1]), in the data set on Heliothis virescens (setting [2]) and in the data set on Plutella xylostella (setting [3]) was > 80% throughout.

In the case of `O=C(OCCOCc1c(Cl)cc(OCC=C(Cl)Cl)cc1Cl)c1ccc(OC(F)(F)F)cc1` [Compound 8.12], the inhibition at 400 ppm with Spodoptera littoralis (setting [1]), in the data set on Heliothis virescens (setting [2]) and with Plutella xylostella (setting [3]) was > 80% each time.

Turning to `ClC(Cl)=CCOc1cc(Cl)c(COc2ccc3c(c2)OCO3)c(Cl)c1` [Compound 1.8], the inhibition at 400 ppm with Plutella xylostella is > 80%.

What is called melting point is the temperature, or range, at which the solid turns liquid.
